# Assay results reported in patent publication US9067922B2, “Chemical compounds” (Pfizer Limited, priority 2013, dated 2015).
# Target: URAT-1 transporter (Homo sapiens (Human), UniProt Q96S37)
# Assay: URAT-1 inhibitor activity: [14C]-uric acid uptake in CHO-URAT1(L)GFP#8 (CHO#8) cells, scintillation proximity
# Format: cell-based
# Details: inhibition of [14C]-uric acid (30 nM) uptake into CHO#8 cells; compound 0 to 10 μM; 4 parameter logistic fit
# Text: The nucleotide sequence for the long isoform of URAT1 (NM_144585) was C-terminally fused to that of enhanced green fluorescent protein (eGFP) (hereinafter referred to as URAT1(L)GFP). The combined sequence was codon-optimised and custom synthesized. The synthesized sequence was generated in pDONR221 Gateway entry vector (Invitrogen Life Technologies) prior to cloning in pLenti6.3/V5 Gateway destination vector (Invitrogen Life Technologies).
# Lentiviral particles were generated according to ViraPower HiPerform expression system procedure (Invitrogen Life Technologies) and used to transduce CHO cells. […] The clonal pools were sorted using fluorescence-activated cell sorting (FACS) on the basis of GFP expression with the gating set at the top 50% of expression into single cells which were subsequently expanded to generate clonal lines. […] This cell line was used for all screening activities and is referred to as CHO-URAT1(L)GFP#8 or CHO#8.
# The potency of the compounds of formula (I) as inhibitors of the URAT-1 transporter was determined as follows.
# CHO#8 cells were cultured in cell line maintenance flasks in medium consisting of Dulbecco's modified Eagle medium (DMEM) with high glucose and sodium pyruvate (4.5 g of glucose per liter, Invitrogen Life Technologies), supplemented with heat-inactivated foetal bovine serum (FBC, 10% v/v), 1×NEAA (non-essential amino acids) and blasticidin (10 μg/ml). Cultures were grown in 175 cm^2 tissue culture flasks in a humidified incubator at approximately 37° C. in approximately 95% air/5% CO2. Near confluent CHO#8 cell cultures were harvested by trypsinisation, re-suspended in culture medium and the process was repeated once or twice weekly to provide sufficient cells for use.
# Assay ready flasks were generated by the same method, except the cells were not cultured in blasticidin.
# Assay ready frozen cells were generated by freezing 40,000,000 cells in 1 ml of FBS (without blasticidin) containing 10% DMSO per vial. One vial was sufficient for 5 assay plates. Each vial was thawed rapidly to 37° C., washed and re-suspended in pre-warmed culture medium for seeding onto assay plates.
# CHO#8 cells were seeded onto Cytostar™ 96-well plates at a density of […]. The cells were cultured for 1 day at approximately 37° C. in a humidified incubator containing approximately 5% CO2 in air. After approximately 24 hours culture, cells were used for uptake experiments.
# On the day of assay, culture medium was removed from the wells and the cells were washed once with 50 μL of chloride-containing buffer (136.7 mM NaCl, 5.36 mM KCl, 0.952 mM CaCl2, 0.441 mM KH2PO4, 0.812 mM MgSO4, 5.6 mM D-glucose, 0.383 mM Na2HPO4.2H2O, 10 mM HEPES, pH 7.4 with NaOH). The cells were pre-incubated with another 50 μL of chloride-containing buffer for one hour at approximately 37° C. in a humidified incubator containing approximately 5% CO2 in air.
# Assay compound plates were prepared by diluting the compounds of formula (I) with chloride-free buffer (125 mM Na-gluconate, 4.8 mM K-gluconate, 1.3 mM Ca-gluconate, 1.2 mM KH2PO4, 1.2 mM MgSO4, 5.6 mM D-glucose, 25 mM HEPES, pH 7.4 with NaOH) in 100% DMSO to a final concentration of 1% DMSO. [^14C]-Uric Uric acid working stock was made by addition of radiolabeled compound to a final concentration of 120 nM in chloride-free buffer. In all wells, the final assay concentration of solvent (DMSO) was 0.25%; the final assay concentration of [^14C]-uric acid was 30 nM in chloride-free buffer and the final compound of formula (I) concentrations ranged from 0 to 10 μM.
# After pre-incubation, cells were washed with 50 μL of chloride-free buffer and another 50 μL of chloride-free buffer was added.
# Sequence of URAT-1 transporter (Q96S37 other isoform, or with tags, fused parts or gaps): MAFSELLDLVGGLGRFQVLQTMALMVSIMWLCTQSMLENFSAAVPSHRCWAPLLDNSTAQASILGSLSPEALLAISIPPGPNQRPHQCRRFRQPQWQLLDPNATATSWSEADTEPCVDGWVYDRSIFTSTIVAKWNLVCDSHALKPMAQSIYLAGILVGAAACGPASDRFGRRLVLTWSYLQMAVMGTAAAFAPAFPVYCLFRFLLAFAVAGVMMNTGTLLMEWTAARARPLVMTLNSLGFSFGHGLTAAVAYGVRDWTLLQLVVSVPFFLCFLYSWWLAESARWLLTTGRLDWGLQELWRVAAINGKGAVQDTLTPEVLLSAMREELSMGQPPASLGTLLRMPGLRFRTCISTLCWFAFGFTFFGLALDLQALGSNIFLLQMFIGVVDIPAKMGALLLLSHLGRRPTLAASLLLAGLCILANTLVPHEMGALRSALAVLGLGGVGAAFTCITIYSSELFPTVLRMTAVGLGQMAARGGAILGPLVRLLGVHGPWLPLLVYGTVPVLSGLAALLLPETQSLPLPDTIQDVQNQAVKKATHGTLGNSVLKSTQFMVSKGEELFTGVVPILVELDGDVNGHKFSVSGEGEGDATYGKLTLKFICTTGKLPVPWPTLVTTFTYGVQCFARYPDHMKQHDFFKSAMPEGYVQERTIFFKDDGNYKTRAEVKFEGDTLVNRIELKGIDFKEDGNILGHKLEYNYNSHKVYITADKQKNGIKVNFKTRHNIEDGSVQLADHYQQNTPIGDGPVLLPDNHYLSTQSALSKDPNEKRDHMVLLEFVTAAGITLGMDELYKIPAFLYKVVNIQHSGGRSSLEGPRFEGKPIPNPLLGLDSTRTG
row,IC50,Structure (SMILES)
1,241 nM,"N#Cc1cc(F)ccc1Oc1ccc(S(=O)(=O)Nc2ccc(F)cn2)cc1C#N [Example 36, 3-cyano-4-(2-cyano-4-fluorophenoxy)-N-(5-fluoropyridin-2-yl)benzenesulfonamide]"
2,80 nM,"Cc1ccc(Cl)cc1Oc1ccc(S(=O)(=O)Nc2ccc(F)cn2)cc1C#N [Example 39, 4-(5-chloro-2-methylphenoxy)-3-cyano-N-(5-fluoropyridin-2-yl)benzenesulfonamide]"
3,53 nM,"N#Cc1ccc(Oc2ccc(S(=O)(=O)Nc3ccc(F)cn3)cc2C#N)cc1F [Example 43, 3-cyano-4-(4-cyano-3-fluorophenoxy)-N-(5-fluoropyridin-2-yl)benzenesulfonamide]"
4,174 nM,"N#Cc1cc(Cl)ccc1Oc1ccc(S(=O)(=O)Nc2ccc(F)cn2)cc1C#N [Example 45, 4-(4-chloro-2-cyanophenoxy)-3-cyano-N-(5-fluoropyridin-2-yl)benzenesulfonamide]"
5,259 nM,"N#Cc1cc(S(=O)(=O)Nc2ccc(F)cn2)ccc1Oc1cccc(F)c1 [Example 52, 3-cyano-4-(3-fluorophenoxy)-N-(5-fluoropyridin-2-yl)benzenesulfonamide]"
6,129 nM,"N#Cc1cc(S(=O)(=O)Nc2ccc(F)cn2)ccc1Oc1ccc(Cl)c(F)c1 [Example 55, 4-(4-chloro-3-fluorophenoxy)-3-cyano-N-(5-fluoropyridin-2-yl)benzenesulfonamide]"
7,> 10000 nM,"Cc1ccc(Oc2ccc(S(=O)(=O)Nc3ccc(F)cn3)cc2C#N)cc1C#N [Example 59, 3-cyano-4-(3-cyano-4-methylphenoxy)-N-(5-fluoropyridin-2-yl)benzenesulfonamide]"
8,92 nM,"N#Cc1cc(Oc2ccc(S(=O)(=O)Nc3ccc(F)cn3)cc2C#N)ccc1Cl [Example 60, 4-(4-chloro-3-cyanophenoxy)-3-cyano-N-(5-fluoropyridin-2-yl)benzenesulfonamide]"
9,39 nM,"Cc1cc(Oc2ccc(S(=O)(=O)Nc3ccc(F)cn3)cc2C#N)ccc1C#N [Example 61, 3-cyano-4-(4-cyano-3-methylphenoxy)-N-(5-fluoropyridin-2-yl)benzenesulfonamide]"
10,27 nM,"N#Cc1cc(Cl)cc(Oc2ccc(S(=O)(=O)Nc3ccc(F)cn3)cc2C#N)c1 [Example 62, 4-(3-chloro-5-cyanophenoxy)-3-cyano-N-(5-fluoropyridin-2-yl)benzenesulfonamide]"
11,321 nM,"N#Cc1ccc(Cl)c(Oc2ccc(S(=O)(=O)Nc3ccc(F)cn3)cc2C#N)c1 [Example 63, 4-(2-chloro-5-cyanophenoxy)-3-cyano-N-(5-fluoropyridin-2-yl)benzenesulfonamide]"
12,> 1130 nM,"N#Cc1cc(S(=O)(=O)Nc2ccc(F)cn2)ccc1Oc1cccc(C#N)c1Cl [Example 64, 4-(2-chloro-3-cyanophenoxy)-3-cyano-N-(5-fluoropyridin-2-yl)benzenesulfonamide]"
13,182 nM,"N#Cc1cc(S(=O)(=O)Nc2ccc(F)cn2)ccc1Oc1cc(Cl)ccc1C#N [Example 65, 4-(5-chloro-2-cyanophenoxy)-3-cyano-N-(5-fluoropyridin-2-yl)benzenesulfonamide]"
14,135 nM,"COc1ccc(Oc2ccc(S(=O)(=O)Nc3ccc(F)cn3)cc2C#N)cc1C#N [Example 66, 3-cyano-4-(3-cyano-4-methoxyphenoxy)-N-(5-fluoropyridin-2-yl)benzenesulfonamide]"

# The next lines start with the molecule.
row,Structure (SMILES),IC50
1,"N#Cc1cc(S(=O)(=O)Nc2ccc(F)cn2)ccc1Oc1ccc(F)c(Cl)c1Cl [Example 38, 3-cyano-4-(2,3-dichloro-4-fluorophenoxy)-N-(5-fluoropyridin-2-yl)benzenesulfonamide]",55 nM
2,"N#Cc1cc(S(=O)(=O)Nc2ccc(F)cn2)ccc1Oc1cc(F)cc(C(F)(F)F)c1 [Example 40, 3-cyano-N-(5-fluoropyridin-2-yl)-4-[3-fluoro-5-(trifluoromethyl)phenoxy]benzenesulfonamide]",988 nM
3,"N#Cc1cc(S(=O)(=O)Nc2ccc(F)cn2)ccc1Oc1ccccc1F [Example 41, 3-cyano-4-(2-fluorophenoxy)-N-(5-fluoropyridin-2-yl)benzenesulfonamide]",162 nM
4,"Cc1ccc(Oc2ccc(S(=O)(=O)Nc3ccc(F)cn3)cc2C#N)c(Cl)c1 [Example 42, 4-(2-chloro-4-methylphenoxy)-3-cyano-N-(5-fluoropyridin-2-yl)benzenesulfonamide]",383 nM
5,"COc1ccc(Cl)c(Oc2ccc(S(=O)(=O)Nc3ccc(F)cn3)cc2C#N)c1 [Example 44, 4-(2-chloro-5-methoxyphenoxy)-3-cyano-N-(5-fluoropyridin-2-yl)benzenesulfonamide]",167 nM
6,"CCc1ccccc1Oc1ccc(S(=O)(=O)Nc2ccc(F)cn2)cc1C#N [Example 46, 3-cyano-4-(2-ethylphenoxy)-N-(5-fluoropyridin-2-yl)benzenesulfonamide]",107 nM
7,"N#Cc1cc(S(=O)(=O)Nc2ccc(F)cn2)ccc1Oc1ccc(Cl)cc1F [Example 47, 4-(4-chloro-2-fluorophenoxy)-3-cyano-N-(5-fluoropyridin-2-yl)benzenesulfonamide]",50 nM
8,"N#Cc1cc(S(=O)(=O)Nc2ccc(F)cn2)ccc1Oc1ccc(F)c(C(F)(F)F)c1 [Example 48, 3-cyano-N-(5-fluoropyridin-2-yl)-4-[4-fluoro-3-(trifluoromethyl)phenoxy]benzenesulfonamide]",683 nM
9,"CC(C)c1ccccc1Oc1ccc(S(=O)(=O)Nc2ccc(F)cn2)cc1C#N [Example 49, 3-cyano-N-(5-fluoropyridin-2-yl)-4-[2-(propan-2-yl)phenoxy]benzenesulfonamide]",> 1380 nM
10,"CCc1ccc(Oc2ccc(S(=O)(=O)Nc3ccc(F)cn3)cc2C#N)cc1 [Example 50, 3-cyano-4-(4-ethylphenoxy)-N-(5-fluoropyridin-2-yl)benzenesulfonamide]",> 10000 nM
11,"N#Cc1cc(S(=O)(=O)Nc2ccc(F)cn2)ccc1Oc1ccccc1C(F)(F)F [Example 51, 3-cyano-N-(5-fluoropyridin-2-yl)-4-[2-(trifluoromethyl)phenoxy]benzenesulfonamide]",171 nM
12,"N#Cc1cc(S(=O)(=O)Nc2ccc(F)cn2)ccc1Oc1cc(F)ccc1F [Example 53, 3-cyano-4-(2,5-difluorophenoxy)-N-(5-fluoropyridin-2-yl)benzenesulfonamide]",191 nM
13,"N#Cc1cc(S(=O)(=O)Nc2ccc(F)cn2)ccc1Oc1ccc(C(F)(F)F)cc1 [Example 54, 3-cyano-N-(5-fluoropyridin-2-yl)-4-[4-(trifluoromethyl)phenoxy]benzenesulfonamide]",> 10000 nM
14,"CCc1cc(F)ccc1Oc1ccc(S(=O)(=O)Nc2ccc(F)cn2)cc1C#N [Example 56, 3-cyano-4-(2-ethyl-4-fluorophenoxy)-N-(5-fluoropyridin-2-yl)benzenesulfonamide]",182 nM
15,"CC(C)c1cccc(Oc2ccc(S(=O)(=O)Nc3ccc(F)cn3)cc2C#N)c1 [Example 57, 3-cyano-N-(5-fluoropyridin-2-yl)-4-[3-(propan-2-yl)phenoxy]benzenesulfonamide]",> 10000 nM
16,"N#Cc1cc(S(=O)(=O)Nc2ccc(F)cn2)ccc1Oc1ccc(Cl)cc1I [Example 58, 4-(4-chloro-2-iodophenoxy)-3-cyano-N-(5-fluoropyridin-2-yl)benzenesulfonamide]",287 nM
17,"N#Cc1ccc(Oc2ccc(S(=O)(=O)Nc3ccc(F)cn3)cc2C#N)c(OC(F)F)c1 [Example 67, 3-cyano-4-[4-cyano-2-(difluoromethoxy)phenoxy]-N-(5-fluoropyridin-2-yl)benzenesulfonamide]",3520 nM
18,"N#Cc1cc(S(=O)(=O)Nc2ccc(F)cn2)ccc1Oc1cnc(C#N)c(Cl)c1 [Example 68, 4-[(5-chloro-6-cyanopyridin-3-yl)oxy]-3-cyano-N-(5-fluoropyridin-2-yl)benzenesulfonamide]",155 nM
